Key:
[1] = molecular target: T1, full length Aurora-A (AA 1-403) (Homo sapiens, UniProt O14965); test: Aurora-A inhibition assay, standard coupled enzyme system; format: biochemical; settings: average Ki if more than one value determined
T1 construct: full length Aurora-A (AA 1-403)
T1 sequence (O14965 1-403): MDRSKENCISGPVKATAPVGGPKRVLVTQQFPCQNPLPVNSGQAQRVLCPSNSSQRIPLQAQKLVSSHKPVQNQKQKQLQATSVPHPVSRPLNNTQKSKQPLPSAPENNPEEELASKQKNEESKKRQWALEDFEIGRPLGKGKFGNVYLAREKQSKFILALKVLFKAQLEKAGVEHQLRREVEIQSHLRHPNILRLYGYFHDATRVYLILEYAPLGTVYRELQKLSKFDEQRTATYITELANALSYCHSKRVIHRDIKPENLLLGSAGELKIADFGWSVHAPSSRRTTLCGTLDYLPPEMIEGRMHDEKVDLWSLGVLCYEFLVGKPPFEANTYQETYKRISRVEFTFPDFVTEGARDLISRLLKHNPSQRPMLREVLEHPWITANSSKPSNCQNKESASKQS
Experimental: Compounds were screened for their ability to inhibit full length Aurora-A (AA 1-403) activity using a standard coupled enzyme system (Fox et al., Protein Sci. 7, pp. 2249 (1998)). Reactions were carried out in a solution containing 100 mM HEPES (pH 7.5), 10 mM MgCl2, 25 mM NaCl, 300 μM NADH, 1 mM DTT and 3% DMSO. Final substrate concentrations in the assay were 200 μM ATP (Sigma Chemicals, St Louis, Mo.) and 800 μM peptide (LRRASLG, American Peptide, Sunnyvale, Calif.). Reactions were carried out at 30° C. and 35 nM Aurora-A. Final concentrations of the components of the coupled enzyme system were 2.5 mM phosphoenolpyruvate, 200 μM NADH, 60 μg/ml pyruvate kinase and 20 μg/ml lactate dehydrogenase.
An assay stock buffer solution was prepared containing all of the reagents listed above with the exception of ATP and the test compound of interest. The assay stock buffer solution (60 μl) was incubated in a 96 well plate with 2 μl of the test compound of interest at final concentrations spanning 0.002 μM to 30 μM at 30° C. for 10 min. Typically, a 12 point titration was conducted by preparing serial dilutions (from 1 mM compound stocks) with DMSO of the test compounds in daughter plates. The reaction was initiated by the addition of 5 μl of ATP (final concentration 200 μM). Rates of reaction were obtained using a Molecular Devices Spectramax plate reader (Sunnyvale, Calif.) over 10 min at 30° C. The Ki values were determined from the rate data as a function of inhibitor concentration using computerized nonlinear regression (Prism 3.0, Graphpad Software, San Diego, Calif.). Aurora-C activity was screened in a similar manner using Aurora-C protein. Aurora-B activity was screened using a radioactive assay, such as described in Examples 1 and 2, but using Aurora-B protein.

ROCK I (AA 6-553) = molecular target: T2, ROCK I (AA 6-553) (Homo sapiens, UniProt Q13464); test: ROCK inhibition assay, standard coupled enzyme system ("Enzyme"); format: biochemical; settings: enzyme-linked assay
T2 construct: ROCK I (AA 6-553)
Experimental: Compounds were screened for their ability to inhibit ROCK I (AA 6-553) activity using a standard coupled enzyme system (Fox et al. (1998) Protein Sci. 7, 2249). Reactions were carried out in a solution containing 100 mM HEPES (pH 7.5), 10 mM MgCl2, 25 mM NaCl, 2 mM DTT and 1.5% DMSO. Final substrate concentrations in the assay were 45 μM ATP (Sigma Chemicals, St Louis, Mo.) and 200 μM peptide (American Peptide, Sunnyvale, Calif.). Reactions were carried out at 30° C. and 45 nM ROCK L. Final concentrations of the components of the coupled enzyme system were 2.5 mM phosphoenolpyruvate, 350 μM NADH, 30 μg/ml pyruvate kinase and 10 μg/ml lactate dehydrogenase.

T2 sequence (Q13464 6-553, species assumed): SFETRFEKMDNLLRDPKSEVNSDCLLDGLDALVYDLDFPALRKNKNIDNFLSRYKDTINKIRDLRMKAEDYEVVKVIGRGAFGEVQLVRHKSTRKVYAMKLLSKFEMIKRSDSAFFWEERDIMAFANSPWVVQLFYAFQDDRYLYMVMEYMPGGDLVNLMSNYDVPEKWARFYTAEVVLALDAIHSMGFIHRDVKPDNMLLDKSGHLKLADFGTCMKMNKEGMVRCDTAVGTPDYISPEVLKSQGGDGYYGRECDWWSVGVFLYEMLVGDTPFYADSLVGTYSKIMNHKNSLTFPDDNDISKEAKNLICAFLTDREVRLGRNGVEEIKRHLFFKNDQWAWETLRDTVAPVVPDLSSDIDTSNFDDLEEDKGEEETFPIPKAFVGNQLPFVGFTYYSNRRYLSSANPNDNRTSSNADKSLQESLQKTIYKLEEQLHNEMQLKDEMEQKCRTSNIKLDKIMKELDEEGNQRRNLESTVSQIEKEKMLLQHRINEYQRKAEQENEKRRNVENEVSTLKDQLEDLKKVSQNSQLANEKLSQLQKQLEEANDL

Row | Ki [1] [nM] | Ki (ROCK I (AA 6-553)) [nM] | Structure (SMILES)
1 | < 500 | < 500 | COc1ccc(-c2c[nH]c3ncc(-c4ccc(F)cc4)cc23)cc1OC [Compound 222]
2 | < 500 | 500 to 5000 | CCNC(=O)[C@H](C)Nc1nc(-c2c[nH]c3ncc(Cl)cc23)ncc1F [Compound 367]
3 | 500 to 5000 | 500 to 5000 | C[C@H](Nc1nc(-c2c[nH]c3ncc(Cl)cc23)ncc1F)C(=O)O [Compound 360]
4 | < 500 | < 500 | CCCNc1cccc(-c2c[nH]c3ncc(-c4ccccc4)cc23)n1 [Compound 259]
5 | < 500 | < 500 | NC(=O)c1ccc(-c2c[nH]c3ncc(-c4ccc(F)cc4)cc23)cc1 [Compound 227]
6 | < 500 | 500 to 5000 | Fc1cnc(-c2c[nH]c3ncc(Cl)cc23)nc1NCC1CCOC1 (stereo not shown) [Compound 373]
7 | < 500 | 500 to 5000 | Clc1cnc2[nH]cc(-c3cccc(Sc4ccccc4Cl)n3)c2c1 [Compound 248]
8 | < 500 | 500 to 5000 | Clc1cnc2[nH]cc(-c3cccc(Br)n3)c2c1 [Compound 240]
9 | < 500 | < 500 | Fc1cnc(-c2c[nH]c3ncc(Cl)cc23)nc1NC1CCNC1 (stereo not shown) [Compound 344]
10 | < 500 | 500 to 5000 | CN1CCC(CNc2nc(-c3c[nH]c4ncc(Cl)cc34)ncc2F)CC1 [Compound 372]
11 | < 500 | 500 to 5000 | C[C@H](Nc1nc(-c2c[nH]c3ncc([N+](=O)[O-])cc23)ncc1F)c1ccc(F)cc1 [Compound 342]
12 | < 500 | 500 to 5000 | CC(C)(C)OC(=O)Nc1cccc(-c2c[nH]c3ncc(Cl)cc23)n1 [Compound 250]
13 | < 500 | 500 to 5000 | O=C(Nc1cccc(-c2c[nH]c3ncc(Cl)cc23)n1)c1ccccn1 [Compound 294]
14 | 500 to 5000 | 500 to 5000 | OCCNc1cccc(-c2c[nH]c3ncc(Cl)cc23)n1 [Compound 270]
15 | < 500 | 500 to 5000 | C[C@H](Nc1nc(-c2c[nH]c3ncc(Cl)cc23)ncc1F)C(=O)NC1CC1 [Compound 338]
16 | < 500 | 500 to 5000 | CC(C)Oc1cnc(-c2c[nH]c3ncc(Cl)cc23)nc1N[C@@H](C)C(=O)NCC(F)(F)F [Compound 410]
17 | < 500 | 500 to 5000 | Clc1cnc2[nH]cc(-c3cccc(Nc4ccccc4Cl)n3)c2c1 [Compound 263]
18 | < 500 | 500 to 5000 | C[C@H](Nc1nc(-c2c[nH]c3ncc(Cl)cc23)ncc1F)c1cccc(OCC(=O)O)c1 [Compound 336]
19 | > 5000 | 500 to 5000 | CNc1cccc(-c2cn(C)c3ncc(Cl)cc23)n1 [Compound 292]
20 | 500 to 5000 | 500 to 5000 | CNc1cccc(-c2c[nH]c3ncc(Cl)cc23)n1 [Compound 298]
21 | < 500 | 500 to 5000 | C[C@H](Nc1nc(-c2c[nH]c3ncc(Cl)cc23)ncc1F)C(=O)OC(C)(C)C [Compound 351]
22 | < 500 | < 500 | COc1cccc(-c2cnc3[nH]cc(-c4ccc(C(N)=O)cc4)c3c2)c1 [Compound 239]
23 | < 500 | 500 to 5000 | COCC#Cc1cnc2[nH]cc(-c3ncc(F)c(N[C@@H](C)c4ccc(F)cc4)n3)c2c1 [Compound 384]
